Patent US6342508B1, “N-hydroxy-2-(Alkyl,Aryl or Heteroaryl sulfanyl, sulfinyl or sulfonyl) 3-substituted alkyl, aryl or heteroarylamides as matrix metalloproteinase inhibitors” (American Cyanamid Company, priority 1997, dated 2002)
Where two headings read alike, the source gives them in different places.

Experiments:
MMP 1 = biological target: T1, MMP 1 (Homo sapiens, UniProt P03956); assay: In Vitro Collagenase Assay (human recombinant fibroblast collagenase, fluorogenic peptide substrate); type: biochemical; settings: for IC50: read-out: MMP 1 IC 50
T1 construct: human recombinant fibroblast collagenase (truncated mw=18,828, WAR, Radnor)
T1 sequence (P03956 100-269 limits assumed): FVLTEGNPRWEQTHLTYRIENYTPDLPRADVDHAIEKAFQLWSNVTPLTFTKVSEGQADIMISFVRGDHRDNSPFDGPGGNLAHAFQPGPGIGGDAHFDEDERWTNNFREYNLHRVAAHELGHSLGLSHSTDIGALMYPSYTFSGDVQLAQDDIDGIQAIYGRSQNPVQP
Method: The assay is based on the cleavage of a peptide substrate ((Dnp-Pro-Cha-Gly-Cys(Me)-His-Ala-Lys(NMa)-NH2), Peptide International Inc.) by collagenase releasing the fluorescent NMa group which is quantitated on the fluorometer. Dnp quenches the NMa fluorescence in the intact substrate. […] Substrate is dissolved in methanol and stored frozen in 1 mM aliquots. […] For the assay, substrate is dissolved in HCBC buffer to a final concentration of 10 μM and collagenase to a final concentration of 5 nM. Compounds are dissolved in methanol, DMSO, or HCBC. The methanol and DMSO are diluted in HCBC to <1.0%. Compounds are added to the 96 well plate containing enzyme and the reaction is started by the addition of substrate.
The slope of the line is calculated and represents the reaction rate.
The mean (x±sem) of the control rate is calculated and compared for statistical significance (p<0.05) with drug-related rates using Dunnett's multiple comparison test.

MMP 9 = biological target: T2, MMP 9 (Homo sapiens, UniProt P14780); assay: In Vitro Gelatinase Assay (human neutrophil gelatinase B, thiopeptide substrate/DTNB); type: biochemical
T2 construct: from tissue; host or cells: human neutrophils
Method: The assay is based on the cleavage of the thiopeptide substrate ((Ac-Pro-Leu-Gly(2 Mercapto-4 methyl-pentanoyl)-Leu-Gly-OEt), Bachem Bioscience) by the enzyme, gelatinase, releasing the substrate product which reacts colorimetrically with DTNB ((5,5′-dithio-bis(2-nitro-benzoic acid)). The enzyne activity is measured by the rate of the color increase. The thiopeptide substrate is made up fresh as a 20 mM stock in 100% DMSO and the DTNB is dissolved in 100% DMSO as a 100 mM stock and stored in dark at room temperature. Both the substrate and DTNB are diluted together to 1 mM with substrate buffer (50 mM HEPES pH 7.5, 5 mM CaCl2) before use.
The increase in OD405 is plotted and the slope of the line is calculated which represents the reaction rate.
The mean (x±sem) of the control rate is calculated and compared for statistical significance (p<0.05) with drug-treated rates using Dunnett's multiple comparison test.

MMP 13 [1] = biological target: T3, MMP 13 (Homo sapiens, UniProt P45452); assay: MMP 13 inhibition (standard/manual test); type: biochemical
TACE = biological target: T4, TACE (Homo sapiens, UniProt P78536); assay: Procedure for Measuring TACE Inhibition (fluorescent peptidyl substrate); type: biochemical; settings: for IC50: read-out: TACE IC 50
T4 construct: purchased Immunex

MMP 13 [2] = biological target: T3, MMP 13; assay: MMP 13 inhibition (HTS); type: biochemical; settings: read-out: MMP 13 % inhibition at 0.2 μM (HTS), 0.2 μM

T2 sequence (P14780 94-707): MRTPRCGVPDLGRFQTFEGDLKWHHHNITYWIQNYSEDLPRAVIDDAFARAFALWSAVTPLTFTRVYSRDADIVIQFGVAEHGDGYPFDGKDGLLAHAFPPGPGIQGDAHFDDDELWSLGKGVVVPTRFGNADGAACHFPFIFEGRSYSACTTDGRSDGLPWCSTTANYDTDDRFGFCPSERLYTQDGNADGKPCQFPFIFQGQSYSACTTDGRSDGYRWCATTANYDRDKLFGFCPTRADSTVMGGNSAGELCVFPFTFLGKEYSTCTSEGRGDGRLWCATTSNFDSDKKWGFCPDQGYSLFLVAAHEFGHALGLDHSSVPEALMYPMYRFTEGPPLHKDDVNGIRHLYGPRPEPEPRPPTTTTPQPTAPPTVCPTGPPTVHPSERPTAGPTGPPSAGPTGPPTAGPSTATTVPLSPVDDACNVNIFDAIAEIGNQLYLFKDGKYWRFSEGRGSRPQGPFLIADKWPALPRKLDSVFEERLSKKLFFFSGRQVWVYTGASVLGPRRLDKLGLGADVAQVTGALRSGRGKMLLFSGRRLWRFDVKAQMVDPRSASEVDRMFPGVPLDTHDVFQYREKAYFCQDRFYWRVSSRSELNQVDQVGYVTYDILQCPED
T4 sequence (P78536 215-824): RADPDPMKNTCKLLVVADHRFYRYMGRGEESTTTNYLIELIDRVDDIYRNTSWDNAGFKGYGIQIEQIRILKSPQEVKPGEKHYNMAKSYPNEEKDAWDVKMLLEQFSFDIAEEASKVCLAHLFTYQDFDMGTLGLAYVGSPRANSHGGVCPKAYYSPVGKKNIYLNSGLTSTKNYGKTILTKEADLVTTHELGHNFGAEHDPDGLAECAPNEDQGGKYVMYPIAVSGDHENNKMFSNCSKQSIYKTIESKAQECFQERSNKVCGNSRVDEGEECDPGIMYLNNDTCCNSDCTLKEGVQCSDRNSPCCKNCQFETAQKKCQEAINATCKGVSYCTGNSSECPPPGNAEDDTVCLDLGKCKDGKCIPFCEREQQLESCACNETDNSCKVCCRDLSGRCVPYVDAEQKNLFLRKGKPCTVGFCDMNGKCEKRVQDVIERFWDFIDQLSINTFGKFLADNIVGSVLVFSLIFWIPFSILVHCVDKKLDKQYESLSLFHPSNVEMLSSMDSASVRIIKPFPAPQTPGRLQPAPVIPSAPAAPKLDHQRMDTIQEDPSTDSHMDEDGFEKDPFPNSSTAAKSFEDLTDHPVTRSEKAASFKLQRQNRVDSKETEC

Compound | IC50 (MMP 1) [µM] | IC50 (MMP 9; read-out: MMP 9 IC 50) [µM] | IC50 (MMP 13 [1]; read-out: MMP 13 IC 50) [nM] | TACE % inhibition at 1 micromolar (TACE) [%] | MMP 1 % inhibition at 1 micromolar (MMP 1) [%] | MMP 9 % inhibition at 1 micromolar (MMP 9) [%] | further results
CC(Cc1ccc(OCCN2CCCCC2)cc1)(C(=O)NO)S(=O)(=O)c1ccc(Br)cc1 (stereo not drawn) [Example 50, 2-(4Bromo-benzenesulfonyl)-2-methyl-3-[4-(2-piperdine-1-yl-ethoxy)-phenyl]-propionic acid hydroxanide] | 0.0511 | 0.0584 | 10.6 | – | – | – | –
2-(4-Methoxy-benzenesulfonyl)-4methyl-2-pyridin-ylmethyl-pentanoic acid hydroxyamide [Example 66] | 1.6 | 0.131 | 226 | 42.33 | – | – | –
CCCC(Cc1ccc(OCCN2CCOCC2)cc1)(C(=O)NO)S(=O)(=O)c1ccc(OC)cc1 (stereo not drawn) [Example 35, 2-(4-Methoxy-benzenesulfonyl)-2-[4-(2-morpholin4yl-oxy)-benzyl]-pentanoic acid hydroxyamide] | 0.456 | 0.234 | 48.2 | – | – | – | –
CCN(CC)CCOc1cccc(CC(C)(C(=O)NO)S(=O)(=O)c2ccc(OC)cc2)c1 (stereo not drawn) [Example 29, N-Hydroxy-2-(4-methoxy-benzenesulfonyl)-2-methyl-3-[3-(2-N,N-diethylamino-ethoxy)-phenyl]-propionamide] | 0.297 | 0.0043 | 3.6 | 41 | – | – | –
CC(Cc1ccc(OCCN2CCCCC2)cc1)(C(=O)NO)S(=O)(=O)c1cccs1 (stereo not drawn) [Example 45, 2-Methyl-3-4-(2-piperdin-1-yl-ethoxy)-phenyl-2-(thiophene-2-sulfonyl)-propionic acid hydroxamide] | – | – | – | 20.4 | 49 | 48.6 | –
COc1ccc(S(=O)(=O)C2(C(=O)NO)CCN(CC=C(C)C)CC2)cc1 [Example 89, 4-(4methoxy-benzene-sulfonyl)-1-(3-methyl-but-2-enyl)-piperdine-4-carboxylic acid hydroxamide] | 1.39 | 0.0386 | 7 | 49 | – | – | –
CC(Cc1ccccc1)(C(=O)NO)S(=O)(=O)c1cccs1 (stereo not drawn) [Example 48, 2-Methyl-3-phenyl-2-(thiophene-2-sulfonyl)-propionic acid hydroxamide] | – | – | – | 51.1 | 99.1 | 79.1 | –
Cc1occc1S(=O)(=O)C(C)(Cc1ccc(OCCN2CCCCC2)cc1)C(=O)NO (stereo not drawn) [Example 44, 2-Methyl-2-(2-methyl-furan-3-sulfonyl)3-[4-(2-piperidin-1-yl-ethoxy)phenyl]-propionic acid hydroxamide] | – | – | – | 14.9 | 47.1 | 36.9 | MMP 13 % inhibition at 1 micromolar (MMP 13 [1]): 39.5%
COc1ccc(S(=O)(=O)C(C)(Cc2ccc(OCCN3CCCCC3)cc2)C(=O)NO)cc1 (stereo not drawn) [Example 17, N-Hydroxy-2-(4-methoxy-benzenesulfonyl)-2-methyl-3-[4-(2-piperidin-1-yl-ethoxy)-phenyl]-proponamide] | 0.239 | 0.0089 | – | 41.00 | – | – | –
CCCCC[C@H](C(=O)NO)[S@+]([O-])c1ccc(OC)cc1 (relative stereo) [Example 81a, 2R*-(4-methoxyphenyl-S*-sulfinyl)-heptanoic acid hydroxyamide] | 2.04 | 0.231 | 43.9 | – | – | – | IC50 (TACE): 0.0271 µM
CC(C(=O)O)S(=O)(=O)CCCCCCCCS(=O)(=O)C(C)C(=O)NO (stereo not drawn) [Example 49, 2-[8-(1-carboxy-ethanesfonyl)-octane-1-sulfonyl]-propionic acid hydroxyamide] | – | – | – | – | 10.1 | 23.7 | MMP 13 % inhibition at 1 micromolar (MMP 13 [1]): 54.6%
CCCCCCC(Sc1ccc(OC)cc1)C(=O)NO (stereo not drawn) [Example 37, 2-(4-Methoxy-benzenesulfanyl)-octanoic acid hydroxyamide] | – | – | – | – | 9 | 31.6 | MMP 13 % inhibition at 1 micromolar (MMP 13 [1]): 14.3%; IC50 (TACE): 0.087 µM
CCOc1ccc(S(=O)(=O)C(C)(Cc2ccc(OCCN(CC)CC)cc2)C(=O)NO)cc1 (stereo not drawn) [Example 25, N-Hydroxy-2-(4-ethoxy-benzenesulfonyl)-2-methyl-3-[4-(2-N,N-diethylamino-ethoxy)-phenyl]-propionamide] | – | 0.0267 | 8 | – | – | – | –
COc1ccc(S(=O)(=O)C(C)(CC=C(C)C)C(=O)NO)cc1 (stereo not drawn) [Example 13, 2-(4-Methoxy-benzenesulfonyl)-2-dimethyl-hex-4-enoic acid hydroxyamide] | 0.239 | 0.011 | 14 | – | – | – | IC50 (TACE): 0.626 µM
Cc1occc1S(=O)(=O)C(C)(Cc1ccccc1)C(=O)NO (stereo not drawn) [Example 43, 2-Methyl-2-(2-methyl-furan-3-sulfonyl)-3-phenyl-propionic acid hydroxamide] | – | – | – | 46.6 | 66.1 | 34.7 | MMP 13 % inhibition at 1 micromolar (MMP 13 [1]): 55.5%
CCN(CC)CCOc1ccc(CC(C)(C(=O)NO)S(=O)(=O)c2ccc(OC)cc2)cc1 (stereo not drawn) [Example 21, N-Hydroxy-2-(4-methoxy-benzenesulfonyl)-2-methyl-3-[4-(2-N,N-diethylamino-ethoxy)-phenyl]-propionamide] | 0.318 | 0.0132 | 15.3 | – | – | – | inhibition at 1 µM (TACE; read-out: TACE % inhibition at 1 micromolar): 39%
COc1ccc([S+]([O-])C(C(=O)NO)c2ccccc2)cc1 (stereo not drawn) [Example 8, N-Hydroxy-2-(4-methoxy-benzenesulfinyl)-2-phenyl-acetamide] | – | 0.346 | 308 | – | – | – | melting point: 135 °C
CC(=O)Nc1ccc(SC(Cc2ccccc2)C(=O)NO)cc1 (stereo not drawn) [Example 128, 2-(4-Acetylamino-benzenesulfanyl)-N-hydroxy-3-phenyl-propionamide] | – | – | – | – | – | – | IC50 (MMP 9; solid phase compounds table, read-out: MMP 9): 0.213 µM; IC50 (MMP 13 [1]; manual, nM): 255 nM; inhibition at 0.2 µM (MMP 13 [2]): 91%
CCCCCCCCS(=O)(=O)C(Cc1ccc(OCCN2CCCCC2)cc1)C(=O)NO (stereo not drawn) [Example 46, 2-(octane-1-sulfonyl)-3-[4-(2-piperidin-yl-ethoxy)-phenyl]propionic acid hydroxamide] | – | – | – | 1.4 | 78.9 | 79.12 | MMP 13 % inhibition at 1 micromolar (MMP 13 [1]): 84.7%
